Bridge positions count the residues as written; N and C are the ends. Ends that are not written are not given here.
Assays:
[1] = system: HIV RNA and protein expression; experiment: HIV RNA and protein expression in HIV-1 transgenic mice; assay type: in vivo
Text: The HIV-1 transgenic mice used for this study contain 7.4 kb of foreign DNA, including 5.1 kb of the HIV-1 proviral genome deleted in the gag and pol genes and 2.3 kb of vector (Dickie et al., 1991, Virology 185:109-119). […] In addition, these mice develop severe hyperkeratotic skin lesions with marked expression of gp 120 and nef genes (Kopp et al., 1993, AIDS Res. Hum. Retroviruses 9:267-275; Vasli et al., 1994, AIDS Res. Hum. Retroviruses 10:1241-1250).
Heterozygous transgenic mothers were treated with the hCG preparation subcutaneously twice weekly. Pups received hCG via the mother's milk.
Gene expression was assayed in total RNA extracted from the skin of Tg26 mice with RNAzol. One microgram of RNA was reverse transcribed into cDNA using random hexamer primers and […] reverse transcriptase (Life Technologies, MD) in a final volume of 30 μl. One tenth of the cDNA reactions were used for PCR amplification of various HIV gene sequences (env, tat, rev, nef and vif). In addition, glyceraldehyde 3-phosphate dehydrogenase (GAPHD) mRNA was amplified for each sample for normalization. Following 25 cycles of amplification, 10% of the PCR product was resolved by electrophoresis through 2% agarose gels and processed for Southern hybridization using FITC-labeled oligonucleotide probes complimentary to internal sequences of the amplicons. Detection was performed by chemiluminescence (Amersham) and relative mRNA levels determined by densitometry after normalization with GAPDH mRNA levels.
Finally, certain fractions were tested for their ability to increase survival, promote weight gain and reduce HIV-1 gene expression in HIV-1 transgenic mice as described herein.

lung cancer cells [2] = experiment: Trypan blue cell death assay, lung cancer cells; assay type: cell-based
Description: (§1) The hCG preparations, fractions of the early pregnancy urine and hCG APL™ SUPERDEX™ 200 fractionations (described herein), and certain β-hCG peptides were tested on prostate, lung, breast, and kidney cancer cells in vitro, and on prostate tumors in nude mice. […] The preparations fractions and peptides were also assayed using a clonogenic assay in which cells were seeded in methylcellulose in the presence or absence of test substance and then colonies were counted after a certain period of time. Cells were also examined for apoptosis by confocal microscopy.
The effects of hCG preparations, hCG fractions and β-hCG peptides were tested in lung cancer cells in vitro. Lung cancer cells were incubated with the hCG preparations, hCG fractions and β-hCG peptides in both the trypan blue viability assay and the clonogenic assay.

breast cancer cells = experiment: Clonogenic assay, breast cancer cells; assay type: cell-based; details: 100 ug/ml
Description: as §1
The hCG preparation, hCG fractions and β-hCG peptides were also tested for the inhibition of breast cancer cell colony formation in the clonogenic assay.

lung cancer cells [3] = experiment: Clonogenic assay, lung cancer cells; assay type: cell-based; details: compared to PBS alone
Description: as §1

## 4. Circ 44-57: β-hCG 44-57 with cysteine substituted at position 44, circularized via disulfide bond (SEQ ID NO:26) (CLQGVLPALPQVVC; disulfide 1-14 (inferred))
HIV-1
  inhibition of HIV-1 infection/replication in vitro (in words): inhibit HIV-1 replication in vitro
HIV-1; inhibition of HIV-1 replication in vitro (HIV-1 strains and HIV-1 primary isolates)
  HIV in vitro Inhibition: +++ (“+++” represents greater than 70% effect)
[1]; inhibition of HIV RNA and protein expression in HIV-1 transgenic mice
  inhibition of HIV RNA and protein expression: +++ (“+++” represents greater than 70% effect)
[1]; pups dosed via mother's milk
  HIV-1 gene / protein expression in transgenic mice (in words): considerable inhibition
Lung cancer cells [2]; 200 μg/ml
  % dead cells: 42%
Lung cancer cells [2]; 300 μg/ml
  % dead cells: 59%
Breast cancer cells
  % inhibition (colony formation): 45%
Lung cancer cells [3]
  colony formation: inhibited colony formation
